Drawing on the NIST ThermoML archive (doi:10.1021/je9008014), this text covers viscosity and mass density for 2 molecules.

The structures appear in SMILES notation. ± gives the expanded uncertainty stated by the source.

For data set [1] the following is noted: 101 kPa, Liquid; for mass density: Pycnometric method.
Data set [2] is described as follows: xn = mol fraction of the nth substance listed. The note with it: 101 kPa, Liquid, x2 = 0.

Consider `CCOCCOCCOCCO` [2-(2-(2-ethoxyethoxy)ethoxy)ethanol], for which the viscosity (in general, the internal friction of a fluid under shear) is given as 7.796 ± 0.16 mPa·s in data set [1] (293.15 K); 6.739 ± 0.14 mPa·s in data set [1] (298.15 K); 5.657 ± 0.12 mPa·s in data set [1] (303.15 K); 4.185 ± 0.094 mPa·s in data set [1] (313.15 K); 3.326 ± 0.076 mPa·s in data set [1] (323.15 K); 2.627 ± 0.061 mPa·s in data set [1] (333.15 K). Further, the mass density (as a rule, the mass of a sample divided by its volume) was found to be 1020.6 ± 2.1 kg/m3 in data set [1] (293.15 K); 1016.3 ± 2.1 kg/m3 in data set [1] (298.15 K); 1011.9 ± 2.1 kg/m3 in data set [1] (303.15 K); 1008.1 ± 2.1 kg/m3 in data set [1] (308.15 K); 1003.9 ± 2.1 kg/m3 in data set [1] (313.15 K); 995.5 ± 2 kg/m3 in data set [1] (323.15 K). In addition, the mass density in data set [1] (333.15 K) was 986.7 ± 2 kg/m3.

For the molecule `O` [water] + CCOCCOCCOCCO, the viscosity in data set [2] (293.15 K) stood at 1.005 ± 0.025 mPa·s; in data set [2] (303.15 K), 0.8007 ± 0.02 mPa·s; in data set [2] (313.15 K) it was 0.656 ± 0.017 mPa·s; in data set [2] (323.15 K) it was 0.5494 ± 0.015 mPa·s; in data set [2] (333.15 K), 0.4688 ± 0.013 mPa·s. The mass density in data set [2] (333.15 K, Pycnometric method) was 983.2 ± 2 kg/m3.
